Laboratory results reported in the supplement of paper PMC10307832.

Columns and labels:
Test in all cases: relative viability (nuclei count vs DMSO), 5 days (fraction); higher = more cells survive
[1] = compound: CCN1CCC(CC1)N2C=C(N=N2)CNC3=CC4=C(C(=CN=C4C(=C3)Cl)C#N)NC5=CC(=C(C=C5)F)Cl [KIN001-266] + CS(=O)(=O)CCNCc1ccc(-c2ccc3ncnc(Nc4ccc(OCc5cccc(F)c5)c(Cl)c4)c3c2)o1 [Lapatinib] (partner 2 µM)
Method in brief: (§1)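 Dosing by pin tool came one day after lung cancer cell lines were seeded in 1536-well plates, using either one drug or a fixed anchor-drug dose plus five library-drug doses (not always all listed) in √10 steps. After 5 days, nuclei were counted on 4× images. Relative viability is treated-well nuclei count divided by vehicle-well nuclei count, and values are medians of duplicate plates.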

[2] = compound: CCN1CCC(CC1)N2C=C(N=N2)CNC3=CC4=C(C(=CN=C4C(=C3)Cl)C#N)NC5=CC(=C(C=C5)F)Cl [KIN001-266] + Cc1nc(Nc2ncc(C(=O)Nc3c(C)cccc3Cl)s2)cc(N2CCN(CCO)CC2)n1 [Dasatinib] (partner 0.075 µM)
Method in brief: as §1

[3] = compound: CCN1CCC(CC1)N2C=C(N=N2)CNC3=CC4=C(C(=CN=C4C(=C3)Cl)C#N)NC5=CC(=C(C=C5)F)Cl [KIN001-266] + Nc1nc2[nH]cc(CCc3ccc(C(=O)N[C@@H](CCC(=O)O)C(=O)O)cc3)c2c(=O)[nH]1 [Pemetrexed] (partner 0.2 µM)
Method in brief: as §1

[4] = compound: CCN1CCC(CC1)N2C=C(N=N2)CNC3=CC4=C(C(=CN=C4C(=C3)Cl)C#N)NC5=CC(=C(C=C5)F)Cl [KIN001-266] + C[C@@H](Oc1cc(-c2cnn(C3CCNCC3)c2)cnc1N)c1c(Cl)ccc(F)c1Cl [Crizotinib] (partner 1 µM)
Method in brief: as §1

## NCI-H2347
[1]; first compound 0.08 µM
  relative viability: 0.952
[1]; first compound 0.253 µM
  relative viability: 0.956
[1]; first compound 0.8 µM
  relative viability: 0.925
[1]; first compound 2.53 µM
  relative viability: 0.915
[1]; first compound 8 µM
  relative viability: 0.51
[2]; first compound 0.08 µM
  relative viability: 0.34
[2]; first compound 0.253 µM
  relative viability: 0.294
[2]; first compound 0.8 µM
  relative viability: 0.258
[2]; first compound 2.53 µM
  relative viability: 0.329
[2]; first compound 8 µM
  relative viability: 0.241
[3]; first compound 0.08 µM
  relative viability: 0.455
[3]; first compound 0.253 µM
  relative viability: 0.463
[3]; first compound 0.8 µM
  relative viability: 0.43
[3]; first compound 2.53 µM
  relative viability: 0.452
[3]; first compound 8 µM
  relative viability: 0.433
[4]; first compound 0.08 µM
  relative viability: 0.675
[4]; first compound 0.253 µM
  relative viability: 0.802
[4]; first compound 0.8 µM
  relative viability: 0.673
[4]; first compound 2.53 µM
  relative viability: 0.682
[4]; first compound 8 µM
  relative viability: 0.625

## NCI-H838
[1]; first compound 0.08 µM
  relative viability: 0.988
[1]; first compound 0.253 µM
  relative viability: 0.989
[1]; first compound 0.8 µM
  relative viability: 1.13
[1]; first compound 2.53 µM
  relative viability: 1.06
[1]; first compound 8 µM
  relative viability: 0.866
[2]; first compound 0.08 µM
  relative viability: 0.275
[2]; first compound 0.253 µM
  relative viability: 0.267
[2]; first compound 0.8 µM
  relative viability: 0.338
[2]; first compound 2.53 µM
  relative viability: 0.26
[2]; first compound 8 µM
  relative viability: 0.282
[3]; first compound 0.08 µM
  relative viability: 0.242
[3]; first compound 0.253 µM
  relative viability: 0.249
[3]; first compound 0.8 µM
  relative viability: 0.26
[3]; first compound 2.53 µM
  relative viability: 0.249
[3]; first compound 8 µM
  relative viability: 0.236
[4]; first compound 0.08 µM
  relative viability: 0.873
[4]; first compound 0.253 µM
  relative viability: 0.849
[4]; first compound 0.8 µM
  relative viability: 0.965
[4]; first compound 2.53 µM
  relative viability: 0.844
[4]; first compound 8 µM
  relative viability: 0.689

## NCI-H2023
[1]; first compound 0.08 µM
  relative viability: 0.774
[1]; first compound 0.253 µM
  relative viability: 0.971
[1]; first compound 0.8 µM
  relative viability: 1.09
[1]; first compound 2.53 µM
  relative viability: 0.855
[1]; first compound 8 µM
  relative viability: 0.34
[2]; first compound 0.08 µM
  relative viability: 0.608
[2]; first compound 0.253 µM
  relative viability: 0.555
[2]; first compound 0.8 µM
  relative viability: 0.63
[2]; first compound 2.53 µM
  relative viability: 0.526
[2]; first compound 8 µM
  relative viability: 0.533
[3]; first compound 0.08 µM
  relative viability: 0.233
[3]; first compound 0.253 µM
  relative viability: 0.192
[3]; first compound 0.8 µM
  relative viability: 0.296
[3]; first compound 2.53 µM
  relative viability: 0.221
[3]; first compound 8 µM
  relative viability: 0.201
[4]; first compound 0.08 µM
  relative viability: 0.732
[4]; first compound 0.253 µM
  relative viability: 0.603
[4]; first compound 0.8 µM
  relative viability: 0.576
[4]; first compound 2.53 µM
  relative viability: 0.648
[4]; first compound 8 µM
  relative viability: 0.459

## 201T
[1]; first compound 0.08 µM
  relative viability: 1.05
[1]; first compound 0.253 µM
  relative viability: 0.981
[1]; first compound 0.8 µM
  relative viability: 0.992
[1]; first compound 2.53 µM
  relative viability: 1.07
[1]; first compound 8 µM
  relative viability: 1.05
[2]; first compound 0.08 µM
  relative viability: 0.62
[2]; first compound 0.253 µM
  relative viability: 0.513
[2]; first compound 0.8 µM
  relative viability: 0.545
[2]; first compound 2.53 µM
  relative viability: 0.606
[2]; first compound 8 µM
  relative viability: 0.589
[3]; first compound 0.08 µM
  relative viability: 0.342
[3]; first compound 0.253 µM
  relative viability: 0.375
[3]; first compound 0.8 µM
  relative viability: 0.352
[3]; first compound 2.53 µM
  relative viability: 0.34
[3]; first compound 8 µM
  relative viability: 0.319
[4]; first compound 0.08 µM
  relative viability: 1.05
[4]; first compound 0.253 µM
  relative viability: 0.997
[4]; first compound 0.8 µM
  relative viability: 1.02
[4]; first compound 2.53 µM
  relative viability: 1.03
[4]; first compound 8 µM
  relative viability: 1.03
